Laboratory results published in US20250282794A1 (CURADEV PHARMA LTD, priority 2022, published 2025).

biological target: recombinant full length HPK-1 enzyme (Homo sapiens (Human), UniProt Q92918); assay: HPK-1 biochemical enzyme assay (ADP-Glo kinase inhibition); conditions: recombinant full length HPK-1 6.8 nM, 10 μM ATP, 12.5 μM MBP, 30 mins at 25° C.
Procedure, shortened: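 Recombinant full-length human HPK-1 (6.8 nM) incubated 30 min at 25° C. with 10 μM ATP and 12.5 μM swine MBP in 40 mM Tris pH 7.4, 20 mM MgCl2, 50 μM DTT, 0.1 mg/mL BSA. ADP measured by ADP-Glo; IC50 from 10 concentrations, normalized to no-enzyme and vehicle controls.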

recombinant full length HPK-1 enzyme, sequence (Q92918 whole entry, species assumed): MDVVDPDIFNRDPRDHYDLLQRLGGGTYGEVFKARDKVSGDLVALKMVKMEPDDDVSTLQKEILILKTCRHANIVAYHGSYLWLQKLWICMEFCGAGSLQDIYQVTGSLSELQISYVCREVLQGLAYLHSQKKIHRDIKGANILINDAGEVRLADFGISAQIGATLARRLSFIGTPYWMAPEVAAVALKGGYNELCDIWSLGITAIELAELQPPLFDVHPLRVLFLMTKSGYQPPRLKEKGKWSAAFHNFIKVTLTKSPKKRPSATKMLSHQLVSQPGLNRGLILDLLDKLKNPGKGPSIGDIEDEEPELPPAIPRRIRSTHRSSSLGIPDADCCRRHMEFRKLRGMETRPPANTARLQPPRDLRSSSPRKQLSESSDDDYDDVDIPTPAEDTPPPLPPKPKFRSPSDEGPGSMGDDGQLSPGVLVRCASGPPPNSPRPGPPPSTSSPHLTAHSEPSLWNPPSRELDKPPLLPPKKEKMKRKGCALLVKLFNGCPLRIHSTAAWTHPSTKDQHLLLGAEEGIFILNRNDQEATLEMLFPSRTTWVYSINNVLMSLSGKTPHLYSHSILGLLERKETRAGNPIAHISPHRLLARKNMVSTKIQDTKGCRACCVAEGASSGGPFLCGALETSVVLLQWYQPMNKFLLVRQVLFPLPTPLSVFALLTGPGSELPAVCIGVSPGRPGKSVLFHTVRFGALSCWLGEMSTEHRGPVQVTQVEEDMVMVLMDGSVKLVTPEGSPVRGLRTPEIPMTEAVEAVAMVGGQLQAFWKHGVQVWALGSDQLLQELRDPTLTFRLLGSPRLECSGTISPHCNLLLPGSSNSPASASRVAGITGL

| IC50 [nM] | Structure (SMILES) |
| --- | --- |
| ≤ 10 | CCC(C)C(=O)N1CCN(c2ccc(NC(=O)c3c(Nc4cnc5c(c4C)NCCO5)cc[nH]c3=O)cc2)CC1 (stereo not shown) [Example 333, 4-((8-methyl-2,3-dihydro-1H-pyrido[2,3-b][1,4]oxazin-7-yl)amino)-N-(4-(4-(2-methylbutanoyl)piperazin-1-yl)phenyl)-2-oxo-1,2-dihydropyridine-3-carboxamide] |
| ≤ 10 | Cc1c(Nc2cc[nH]c(=O)c2C(=O)Nc2ccc(N3CCN(C(=O)C4C(C)(C)C4(C)C)CC3)cc2)cnc2c1NCCO2 [Example 334, 4-((8-methyl-2,3-dihydro-1H-pyrido[2,3-b][1,4]oxazin-7-yl)amino)-2-oxo-N-(4-(4-(2,2,3,3-tetramethylcyclopropane-1-carbonyl)piperazin-1-yl)phenyl)-1,2-dihydropyridine-3-carboxamide] |
| 10 to 100 | Cc1c(Nc2cc[nH]c(=O)c2C(=O)Nc2ccc(N3CCN(C(=O)C(C)C)CC3)cc2)cnc2c1NCC(C)O2 (stereo not shown) [Example 335, 4-((3,8-dimethyl-2,3-dihydro-1H-pyrido[2,3-b][1,4]oxazin-7-yl)amino)-N-(4-(4-isobutyrylpiperazin-1-yl)phenyl)-2-oxo-1,2-dihydropyridine-3-carboxamide] |
| ≤ 10 | Cc1c(Nc2cc[nH]c(=O)c2C(=O)Nc2ccc(N3CCN(c4ccn(C)n4)CC3)cc2)cnc2c1NCCO2 [Example 336, N-(4-(4-(1-methyl-1H-pyrazol-3-yl)piperazin-1-yl)phenyl)-4-((8-methyl-2,3-dihydro-1H-pyrido[2,3-b][1,4]oxazin-7-yl)amino)-2-oxo-1,2-dihydropyridine-3-carboxamide] |
| ≤ 10 | Cc1ncccc1N1CCN(c2ccc(NC(=O)c3c(Nc4cnc5c(c4C)NCCO5)cc[nH]c3=O)cc2)CC1 [Example 337, 4-((8-methyl-2,3-dihydro-1H-pyrido[2,3-b][1,4]oxazin-7-yl)amino)-N-(4-(4-(2-methylpyridin-3-yl)piperazin-1-yl)phenyl)-2-oxo-1,2-dihydropyridine-3-carboxamide] |
| 10 to 100 | Cc1c(Nc2cc[nH]c(=O)c2C(=O)Nc2ccc(N3CCN(c4cncnc4)CC3)cc2)cnc2c1NCCO2 [Example 338, 4-((8-methyl-2,3-dihydro-1H-pyrido[2,3-b][1,4]oxazin-7-yl)amino)-2-oxo-N-(4-(4-(pyrimidin-5-yl)piperazin-1-yl)phenyl)-1,2-dihydropyridine-3-carboxamide] |
| ≤ 10 | Cc1c(Nc2cc[nH]c(=O)c2C(=O)Nc2ccc(N3CCN(c4ncn(C)n4)CC3)cc2)cnc2c1NCCO2 [Example 339, N-(4-(4-(1-methyl-1H-1,2,4-triazol-3-yl)piperazin-1-yl)phenyl)-4-((8-methyl-2,3-dihydro-1H-pyrido[2,3-b][1,4]oxazin-7-yl)amino)-2-oxo-1,2-dihydropyridine-3-carboxamide] |
| ≤ 10 | Cc1cc(N2CCN(c3ccc(NC(=O)c4c(Nc5cnc6c(c5C)NCCO6)cc[nH]c4=O)cc3)CC2)ccn1 [Example 340, 4-((8-methyl-2,3-dihydro-1H-pyrido[2,3-b][1,4]oxazin-7-yl)amino)-N-(4-(4-(2-methylpyridin-4-yl)piperazin-1-yl)phenyl)-2-oxo-1,2-dihydropyridine-3-carboxamide] |
| ≤ 10 | Cc1c(Nc2cc[nH]c(=O)c2C(=O)Nc2ccc(N3CCN(C(=O)C(C)(C)C)CC3)cc2)cnc2c1NCCO2 [Example 341, 4-((8-methyl-2,3-dihydro-1H-pyrido[2,3-b][1,4]oxazin-7-yl)amino)-2-oxo-N-(4-(4-pivaloylpiperazin-1-yl)phenyl)-1,2-dihydropyridine-3-carboxamide] |
| ≤ 10 | Cc1c(Nc2cc[nH]c(=O)c2C(=O)Nc2ccc(N3CCN(C(=O)C(C)(C)F)CC3)cc2)cnc2c1NCCO2 [Example 342, N-(4-(4-(2-fluoro-2-methylpropanoyl)piperazin-1-yl)phenyl)-4-((8-methyl-2,3-dihydro-1H-pyrido[2,3-b][1,4]oxazin-7-yl)amino)-2-oxo-1,2-dihydropyridine-3-carboxamide] |
| ≤ 10 | Cc1c(Nc2cc[nH]c(=O)c2C(=O)Nc2ccc(N3CCN(C(=O)C(C)C)[C@@H](C)C3)cc2)cnc2c1NCCO2 [Example 343, (S)-N-(4-(4-isobutyryl-3-methylpiperazin-1-yl)phenyl)-4-((8-methyl-2,3-dihydro-1H-pyrido[2,3-b][1,4]oxazin-7-yl)amino)-2-oxo-1,2-dihydropyridine-3-carboxamide] |
| ≤ 10 | COC(C)(C)C(=O)N1CCN(c2ccc(NC(=O)c3c(Nc4cnc5c(c4C)NCCO5)cc[nH]c3=O)cc2)CC1 [Example 344, N-(4-(4-(2-methoxy-2-methylpropanoyl)piperazin-1-yl)phenyl)-4-((8-methyl-2,3-dihydro-1H-pyrido[2,3-b][1,4]oxazin-7-yl)amino)-2-oxo-1,2-dihydropyridine-3-carboxamide] |
| ≤ 10 | CCC(=O)N1CCN(c2ccc(NC(=O)c3c(Nc4cnc5c(c4C)NCCO5)cc[nH]c3=O)cc2)C[C@@H]1C [Example 345, (S)-4-((8-methyl-2,3-dihydro-1H-pyrido[2,3-b][1,4]oxazin-7-yl)amino)-N-(4-(3-methyl-4-propionylpiperazin-1-yl)phenyl)-2-oxo-1,2-dihydropyridine-3-carboxamide] |
| ≤ 10 | COCCN1CCN(c2ccc(NC(=O)c3c(Nc4cnc5c(c4C)NCCO5)cc[nH]c3=O)cc2)C[C@@H]1C [Example 346, (S)-N-(4-(4-(2-methoxyethyl)-3-methylpiperazin-1-yl)phenyl)-4-((8-methyl-2,3-dihydro-1H-pyrido[2,3-b][1,4]oxazin-7-yl)amino)-2-oxo-1,2-dihydropyridine-3-carboxamide] |
| ≤ 10 | CCC(=O)N1CCN(c2ccc(NC(=O)c3c(Nc4cnc5c(c4C)NCCO5)cc[nH]c3=O)cc2)C[C@H]1C [Example 347, (R)-4-((8-methyl-2,3-dihydro-1H-pyrido[2,3-b][1,4]oxazin-7-yl)amino)-N-(4-(3-methyl-4-propionylpiperazin-1-yl)phenyl)-2-oxo-1,2-dihydropyridine-3-carboxamide] |
| ≤ 10 | COCCN1CCN(c2ccc(NC(=O)c3c(Nc4cnc5c(c4C)NCCO5)cc[nH]c3=O)cc2)C[C@H]1C [Example 348, (R)-N-(4-(4-(2-methoxyethyl)-3-methylpiperazin-1-yl)phenyl)-4-((8-methyl-2,3-dihydro-1H-pyrido[2,3-b][1,4]oxazin-7-yl)amino)-2-oxo-1,2-dihydropyridine-3-carboxamide] |
| ≤ 10 | Cc1c(Nc2cc[nH]c(=O)c2C(=O)Nc2ccc(N3CCN(C(=O)C(C)C)[C@H](C)C3)cc2)cnc2c1NCCO2 [Example 349, (R)-N-(4-(4-isobutyryl-3-methylpiperazin-1-yl)phenyl)-4-((8-methyl-2,3-dihydro-1H-pyrido[2,3-b][1,4]oxazin-7-yl)amino)-2-oxo-1,2-dihydropyridine-3-carboxamide] |
| ≤ 10 | CO[C@@H](C)C(=O)N1CCN(c2ccc(NC(=O)c3c(Nc4cnc5c(c4C)NCCO5)cc[nH]c3=O)cc2)CC1 [Example 350, (S)-N-(4-(4-(2-methoxypropanoyl)piperazin-1-yl)phenyl)-4-((8-methyl-2,3-dihydro-1H-pyrido[2,3-b][1,4]oxazin-7-yl)amino)-2-oxo-1,2-dihydropyridine-3-carboxamide] |
| 10 to 100 | COCC(C)N1CCN(c2ccc(NC(=O)c3c(Nc4cnc5c(c4C)NCCO5)cc[nH]c3=O)cc2)CC1 (stereo not shown) [Example 351, N-(4-(4-(1-methoxypropan-2-yl)piperazin-1-yl)phenyl)-4-((8-methyl-2,3-dihydro-1H-pyrido[2,3-b][1,4]oxazin-7-yl)amino)-2-oxo-1,2-dihydropyridine-3-carboxamide] |
| 10 to 100 | Cc1c(Nc2cc[nH]c(=O)c2C(=O)Nc2ccc(N3CCN(C#N)CC3)cc2)cnc2c1NCCO2 [Example 352, N-(4-(4-cyanopiperazin-1-yl)phenyl)-4-((8-methyl-2,3-dihydro-1H-pyrido[2,3-b][1,4]oxazin-7-yl)amino)-2-oxo-1,2-dihydropyridine-3-carboxamide] |
| 10 to 100 | CO[C@H](C)C(=O)N1CCN(c2ccc(NC(=O)c3c(Nc4cnc5c(c4C)NCCO5)cc[nH]c3=O)cc2)CC1 [Example 353, (R)-N-(4-(4-(2-methoxypropanoyl)piperazin-1-yl)phenyl)-4-((8-methyl-2,3-dihydro-1H-pyrido[2,3-b][1,4]oxazin-7-yl)amino)-2-oxo-1,2-dihydropyridine-3-carboxamide] |
| 10 to 100 | CNC(C)C(=O)N1CCN(c2ccc(NC(=O)c3c(Nc4cnc5c(c4C)NCCO5)cc[nH]c3=O)cc2)CC1 (stereo not shown) [Example 354, 4-((8-methyl-2,3-dihydro-1H-pyrido[2,3-b][1,4]oxazin-7-yl)amino)-N-(4-(4-(methylalanyl)piperazin-1-yl)phenyl)-2-oxo-1,2-dihydropyridine-3-carboxamide] |
| ≤ 10 | Cc1c(Nc2cc[nH]c(=O)c2C(=O)Nc2ccc(N3CCN(C(=O)C4(C)CC4)CC3)cc2)cnc2c1NCCO2 [Example 355, 4-((8-methyl-2,3-dihydro-1H-pyrido[2,3-b][1,4]oxazin-7-yl)amino)-N-(4-(4-(1-methylcyclopropane-1-carbonyl)piperazin-1-yl)phenyl)-2-oxo-1,2-dihydropyridine-3-carboxamide] |
| 10 to 100 | Cc1c(Nc2cc[nH]c(=O)c2C(=O)Nc2ccc(N3CCN(C(=O)C4CCN(C)C4)CC3)cc2)cnc2c1NCCO2 (stereo not shown) [Example 356, 4-((8-methyl-2,3-dihydro-1H-pyrido[2,3-b][1,4]oxazin-7-yl)amino)-N-(4-(4-(1-methylpyrrolidine-3-carbonyl)piperazin-1-yl)phenyl)-2-oxo-1,2-dihydropyridine-3-carboxamide] |
| ≤ 10 | Cc1c(Nc2cc[nH]c(=O)c2C(=O)Nc2ccc(N3CCN(C(=O)C(C)(C)O)CC3)cc2)cnc2c1NCCO2 [Example 357, N-(4-(4-(2-hydroxy-2-methylpropanoyl)piperazin-1-yl)phenyl)-4-((8-methyl-2,3-dihydro-1H-pyrido[2,3-b][1,4]oxazin-7-yl)amino)-2-oxo-1,2-dihydropyridine-3-carboxamide] |
